Measured values published in US20170275270A1, “BENZYL SUBSTITUTED INDAZOLES” (Bayer Pharma Aktiengesellschaft, priority 2014, published 2017).
Where two headings read alike, the source gives them in different places.

Columns and labels:
[1] = target: T1, catalytic domain of human Bub1 (amino acids 704-1085) (Homo sapiens, UniProt O43683); test: Bub1 kinase assay (TR-FRET); type: biochemical
T1 construct: catalytic domain of human Bub1 (amino acids 704-1085); His6 (N); made in house; host or cells: Hi5 insect cells
Procedure, shortened: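 Compounds from 2 mM DMSO stocks, serially diluted 1:3.4, incubated with enzyme at 22° C for 60 min. Stopped with EDTA, then 1 h with streptavidin-XL665, anti-phosphoserine antibody and Eu-labelled anti-mouse IgG. Phosphorylated biotin-peptide read by TR-FRET; IC50 by 4-parameter logistic fit.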

[2] = test system: HeLa human cervical tumor cells; test: Proliferation assay (HeLa+Paclitaxel); conditions: read-out: Biological Assay 3: HeLa + Paclitaxel IC50, 3 nM paclitaxel, crystal violet;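 also: compounds at 0.001-10 µM added 4 h after paclitaxel, 92 h exposure, absorbance normalized to zero-point plate (0%) and untreated cells (100%), IC50 from 4-parameter fit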
Method: Proliferation Assay (HeLa+Paclitaxel):
Cultivated HeLa human cervical tumor cells (DSMZ ACC-57) were plated at a density of 3000 cells/well in a 96-well multititer plate in 200 μL of growth medium supplemented 10% fetal calf serum. After 24 hours, the cells of one plate (zero-point plate) were stained with crystal violet (see below). The medium of the other plates was supplemented with 3 nM of paclitaxel (Sigma-Aldrich) and the cells were incubated at 37° C. After 4 hours the test substances were added in various concentrations (0 μM, as well as in the range of 0.001-10 μM; the final concentration of the solvent dimethyl sulfoxide was adjusted to 0.1%) using a Hewlett-Packard HP D300 Digital Dispenser. The cells were incubated for another 92 hours at 37° C. in the presence of test substances. Cell proliferation was determined by staining the cells with crystal violet: the cells were fixed by adding 20 μL/measuring point of an 11% glutaric aldehyde solution for 15 minutes at room temperature. After three washing cycles of the fixed cells with water, the plates were dried at room temperature. The cells were stained by adding 100 μL/measuring point of a 0.1% crystal violet solution (pH 3.0). After three washing cycles of the stained cells with water, the plates were dried at room temperature. The dye was dissolved by adding 100 μL/measuring point of a 10% acetic acid solution. […] The change of cell number, in percent, was calculated by normalization of the measured values to the absorbtion values of the zero-point plate (=0%) and the absorbtion of the untreated (0 μm) cells (=100%). The IC50 values were determined by means of a 4 parameter fit.

HeLa = test: Proliferation assay (HeLa cell line); conditions: Homo sapiens, 96 h, read-out: Biological Assay 2: Proliferation assay (HeLa cell line) median IC50;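 also: crystal violet staining of cell number, scaled between a plate stained before dosing (0%) and cells left untreated (100%), compounds tested at 0.001-10 µM, IC50 via 4-parameter fit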
Bub1 = Bub1 (Homo sapiens, UniProt O43683); test: Formation-Assay: phosphorylation status of histone 2A by inhibition of kinase activity of Bub1; type: cell-based; conditions: Biological Assay 4.1: H2A Formation IC50, co-treatment with Nocodazole 1 μg/ml, 16 h
Procedure, shortened: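 Cells co-treated 16 h with Nocodazole (1 μg/ml) and compound (3 nM–10 μM), then fixed and immunostained for phospho-H2A, read by infrared imaging (800 nm) normalised to cell stain (700 nm). Nocodazole-only set as 100%, untreated cells as 0%.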

[3] = 10 μM ATP, read-out: Biological Assay 1: Bub1 kinase assay median IC50
[4] = Biological Assay 1: Bub1 kinase assay median IC50, 10 μM ATP

T1 sequence (O43683 704-1085): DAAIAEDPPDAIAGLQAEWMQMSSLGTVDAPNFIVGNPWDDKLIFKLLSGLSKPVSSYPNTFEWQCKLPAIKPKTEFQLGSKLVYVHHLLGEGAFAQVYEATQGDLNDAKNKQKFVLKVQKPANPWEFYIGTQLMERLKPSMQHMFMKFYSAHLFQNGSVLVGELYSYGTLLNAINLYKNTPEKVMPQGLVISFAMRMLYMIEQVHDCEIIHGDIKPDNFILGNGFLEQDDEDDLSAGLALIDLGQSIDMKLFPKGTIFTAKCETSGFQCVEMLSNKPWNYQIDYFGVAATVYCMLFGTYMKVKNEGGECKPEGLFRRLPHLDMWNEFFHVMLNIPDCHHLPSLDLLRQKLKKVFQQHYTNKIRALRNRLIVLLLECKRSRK
Sequence of Bub1 (O43683 whole entry): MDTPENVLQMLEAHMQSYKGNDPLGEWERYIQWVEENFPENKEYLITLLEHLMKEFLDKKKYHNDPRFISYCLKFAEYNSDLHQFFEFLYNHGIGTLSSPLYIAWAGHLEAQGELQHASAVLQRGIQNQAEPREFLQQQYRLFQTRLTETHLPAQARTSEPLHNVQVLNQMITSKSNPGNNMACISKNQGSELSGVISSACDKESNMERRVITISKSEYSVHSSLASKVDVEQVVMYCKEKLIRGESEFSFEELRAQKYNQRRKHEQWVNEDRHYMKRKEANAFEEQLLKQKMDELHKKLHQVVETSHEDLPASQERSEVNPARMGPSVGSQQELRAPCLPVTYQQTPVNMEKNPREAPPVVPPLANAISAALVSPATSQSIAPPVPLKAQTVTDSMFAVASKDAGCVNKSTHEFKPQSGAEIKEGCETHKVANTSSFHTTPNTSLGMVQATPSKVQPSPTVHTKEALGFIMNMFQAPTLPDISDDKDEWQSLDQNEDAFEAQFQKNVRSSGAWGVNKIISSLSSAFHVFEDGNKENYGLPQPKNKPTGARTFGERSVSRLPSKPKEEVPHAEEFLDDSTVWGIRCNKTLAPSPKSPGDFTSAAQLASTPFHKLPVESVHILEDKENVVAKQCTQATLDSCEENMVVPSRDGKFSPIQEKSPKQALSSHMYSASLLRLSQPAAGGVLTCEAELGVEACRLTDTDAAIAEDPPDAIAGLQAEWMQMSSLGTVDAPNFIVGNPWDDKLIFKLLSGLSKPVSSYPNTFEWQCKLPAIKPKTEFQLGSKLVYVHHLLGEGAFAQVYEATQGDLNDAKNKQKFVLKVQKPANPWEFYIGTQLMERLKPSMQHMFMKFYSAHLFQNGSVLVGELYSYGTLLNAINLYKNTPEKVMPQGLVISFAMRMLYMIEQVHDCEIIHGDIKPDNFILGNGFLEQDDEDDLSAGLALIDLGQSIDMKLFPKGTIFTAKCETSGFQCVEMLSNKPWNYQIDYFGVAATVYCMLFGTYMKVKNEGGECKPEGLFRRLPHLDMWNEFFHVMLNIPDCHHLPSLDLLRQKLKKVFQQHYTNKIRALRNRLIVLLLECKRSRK

| IC50 [1, 3] | IC50 [2] | IC50 (HeLa) | IC50 (Bub1) | IC50 [1, 4] | Compound |
| --- | --- | --- | --- | --- | --- |
| 6.5 nM | 920 nM | 1300 nM | 390 nM | – | CCOc1cc(F)c(Cn2nc(-c3nc(C)c(F)c(Nc4ccncc4)n3)c3ccccc32)c(F)c1 [Example 2-12-5, 2-[1-(4-ethoxy-2,6-difluorobenzyl)-1H-indazol-3-yl]-5-fluoro-6-methyl-N-(pyridin-4-yl)pyrimidin-4-amine] |
| 11 nM | 330 nM | 1200 nM | 6 nM | – | CCOc1cc(F)c(Cn2nc(-c3nc4c(c(Nc5ccnc(C)c5)n3)CCC4)c3ccccc32)c(F)c1 [Example 2-12-6, 2-[1-(4-ethoxy-2,6-difluorobenzyl)-1H-indazol-3-yl]-N-(2-methylpyridin-4-yl)-6,7-dihydro-5H-cyclopenta[d]pyrimidin-4-amine] |
| – | 540 nM | 3700 nM | 11 nM | 21 nM | CCOc1cc(F)c(Cn2nc(-c3nc(CC)cc(Nc4ccncc4)n3)c3ccccc32)c(F)c1 [Example 2-12-9, 2-[1-(4-ethoxy-2,6-difluorobenzyl)-1H-indazol-3-yl]-6-ethyl-N-(pyridin-4-yl)pyrimidin-4-amine] |
| 6.8 nM | < 100 nM | 3600 nM | 3.6 nM | – | CCOc1cc(F)c(Cn2nc(-c3nc(CN4CCOCC4)cc(Nc4ccncc4)n3)c3ccccc32)c(F)c1 [Example 2-12-12, 2-[1-(4-ethoxy-2,6-difluorobenzyl)-1H-indazol-3-yl]-6-(morpholin-4-ylmethyl)-N-(pyridin-4-yl)pyrimidin-4-amine] |
| 6 nM | 89 nM | 3400 nM | 6.6 nM | – | CCOc1cc(F)c(Cn2nc(-c3nc(CN4CCOCC4)cc(Nc4ccncc4C)n3)c3ccccc32)c(F)c1 [Example 2-12-13, 2-[1-(4-ethoxy-2,6-difluorobenzyl)-1H-indazol-3-yl]-N-(3-methylpyridin-4-yl)-6-(morpholin-4-ylmethyl)pyrimidin-4-amine] |
| 8.8 nM | 100 nM | 1800 nM | 11 nM | – | CCOc1cc(F)c(Cn2nc(-c3nc(CN4CCOCC4)cc(Nc4ccnc(NC(C)=O)c4)n3)c3ccccc32)c(F)c1 [Example 2-12-14, N-[4-({2-[1-(4-ethoxy-2,6-difluorobenzyl)-1H-indazol-3-yl]-6-(morpholin-4-ylmethyl)pyrimidin-4-yl}amino)pyridin-2-yl]acetamide] |
| – | 130 nM | 1000 nM | 57 nM | 290 nM | CCOc1cc(F)c(Cn2nc(-c3nc4c(c(Nc5ccncc5C)n3)CCN(Cc3ccccc3)C4)c3ccccc32)c(F)c1 [Example 2-12-16, 7-benzyl-2-[1-(4-ethoxy-2,6-difluorobenzyl)-1H-indazol-3-yl]-N-(3-methylpyridin-4-yl)-5,6,7,8-tetrahydropyrido[3,4-d]pyrimidin-4-amine] |
| 8.4 nM | 250 nM | 2000 nM | 4.1 nM | – | CCOc1cc(F)c(Cn2nc(-c3nc4c(c(Nc5ccnc(NC(C)=O)c5)n3)CCC4)c3ccccc32)c(F)c1 [Example 2-12-18, N-[4-({2-[1-(4-ethoxy-2,6-difluorobenzyl)-1H-indazol-3-yl]-6,7-dihydro-5H-cyclopenta[d]pyrimidin-4-yl}amino)pyridin-2-yl]acetamide] |
| – | 330 nM | 2800 nM | 2.9 nM | 5.3 nM | CCOc1cc(F)c(Cn2nc(-c3nc(COC)cc(Nc4ccnc(NC(C)=O)c4)n3)c3ccccc32)c(F)c1 [Example 2-12-20, N-[4-({2-[1-(4-ethoxy-2,6-difluorobenzyl)-1H-indazol-3-yl]-6-(methoxymethyl)pyr-imidin-4-yl}amino)pyridin-2-yl]acetamide] |
| – | 750 nM | 1200 nM | 35 nM | 9.3 nM | CCOc1cc(F)c(Cn2nc(-c3nc(CC)cc(Nc4ccnc(NC(C)=O)c4)n3)c3ccccc32)c(F)c1 [Example 2-12-22, N-[4-({2-[1-(4-ethoxy-2,6-difluorobenzyl)-1H-indazol-3-yl]-6-ethylpyrimidin-4-yl}amino)pyridin-2-yl]acetamide] |
| 23 nM | 380 nM | > 10000 nM | 10 nM | – | CCOc1cc(F)c(Cn2nc(-c3nc(C)c(Cl)c(Nc4ccncc4)n3)c3ccccc32)c(F)c1 [Example 2-12-23, 5-chloro-2-[1-(4-ethoxy-2,6-difluorobenzyl)-1H-indazol-3-yl]-6-methyl-N-(pyridin-4-yl)pyrimidin-4-amine] |
| 520 nM | 400 nM | 8300 nM | 370 nM | – | CCOc1cc(F)c(Cn2nc(-c3nc(CN4CCOCC4)cc(Nc4ccnc(S(C)(=O)=O)c4)n3)c3ccccc32)c(F)c1 [Example 2-12-33, 2-[1-(4-ethoxy-2,6-difluorobenzyl)-1H-indazol-3-yl]-N-[2-(methylsulfonyl)pyridin-4-yl]-6-(morpholin-4-ylmethyl)pyrimidin-4-amine] |
| 36 nM | 500 nM | 7800 nM | 700 nM | – | CCOc1cc(F)c(Cn2nc(-c3nc(CN4CCOCC4)cc(Nc4ccncc4Cl)n3)c3ccccc32)c(F)c1 [Example 2-12-34, N-(3-chloropyridin-4-yl)-2-[1-(4-ethoxy-2,6-difluorobenzyl)-1H-indazol-3-yl]-6-(morpholin-4-ylmethyl)pyrimidin-4-amine] |
| 17 nM | 590 nM | 10000 nM | 14 nM | – | CCOc1cc(F)c(Cn2nc(-c3nc(CN4CCOCC4)cc(Nc4ccnnc4)n3)c3ccccc32)c(F)c1 [Example 2-12-35, N-{2-[1-(4-ethoxy-2,6-difluorobenzyl)-1H-indazol-3-yl]-6-(morpholin-4-ylmethyl)pyrimidin-4-yl}pyridazin-4-amine] |
| 5.2 nM | 68 nM | 6100 nM | 2100 nM | – | CCOc1cc(F)c(Cn2nc(-c3nc(CN4CCOCC4)cc(Nc4ccncn4)n3)c3ccccc32)c(F)c1 [Example 2-12-47, 2-[1-(4-ethoxy-2,6-difluorobenzyl)-1H-indazol-3-yl]-6-(morpholin-4-ylmethyl)-N-(pyrimidin-4-yl)pyrimidin-4-amine] |
| – | 180 nM | 1200 nM | 1100 nM | 21 nM | CCOc1cc(F)c(Cn2nc(-c3nc(COC)cc(Nc4ccnc(C)c4)n3)c3ccccc32)c(F)c1 [Example 2-12-48, 2-[1-(4-ethoxy-2,6-difluorobenzyl)-1H-indazol-3-yl]-6-(methoxymethyl)-N-(2-methylpyridin-4-yl)pyrimidin-4-amine] |
| – | 1300 nM | 970 nM | 23 nM | 5.4 nM | COCc1cc(Nc2ccncc2C)nc(-c2nn(Cc3c(F)cc(OCCO)cc3F)c3ccccc23)n1 [Example 2-12-50, 2-{3,5-difluoro-4-[(3-{4-(methoxymethyl)-6-[(3-methylpyridin-4-yl)amino]pyrimidin-2-yl}-1H-indazol-1-yl)methyl]phenoxy}eth-anol] |
| – | 340 nM | 410 nM | 570 nM | 45 nM | COCc1cc(Nc2ccnc(C)c2)nc(-c2nn(Cc3c(F)cc(OCCO)cc3F)c3ccccc23)n1 [Example 2-12-51, 2-{3,5-difluoro-4-[(3-{4-(methoxymethyl)-6-[(2-methylpyridin-4-yl)amino]pyrimidin-2-yl}-1H-indazol-1-yl)methyl]phenoxy}eth-anol] |
